Results as given in ChEMBL document CHEMBL5303573, “Mapping human microbiome drug metabolism by gut bacteria and their genes” (Nature, 2019).

What was measured:
[1] = The drug is tested on Collinsella aerofaciens strain: ATCC25986 for biotransformation. The drug concentrations were measured before and after a 12-h incubation by liquid-chromatography-coupled mass spectrometry (LC–MS); details: 2 µM
[2] = The drug is tested on Collinsella intestinalis strain: DSM13280 for biotransformation. The drug concentrations were measured before and after a 12-h incubation by liquid-chromatography-coupled mass spectrometry (LC–MS); details: 2 µM
[3] = The drug is tested on Bacteroides cellulosilyticus strain: DSM14838 for biotransformation. The drug concentrations were measured before and after a 12-h incubation by liquid-chromatography-coupled mass spectrometry (LC–MS); details: 2 µM
[4] = The drug is tested on Bacteroides fragilis strain: HMW615 for biotransformation. The drug concentrations were measured before and after a 12-h incubation by liquid-chromatography-coupled mass spectrometry (LC–MS); details: 2 µM
[5] = The drug is tested on Bacteroides fragilis strain: ATCC43859 for biotransformation. The drug concentrations were measured before and after a 12-h incubation by liquid-chromatography-coupled mass spectrometry (LC–MS); details: 2 µM
[6] = The drug is tested on Bacteroides sp. WH2 strain: WH2 for biotransformation. The drug concentrations were measured before and after a 12-h incubation by liquid-chromatography-coupled mass spectrometry (LC–MS); details: bacteroides sp. wh2, 12 h, 2 µM
[7] = The drug is tested on Eubacterium rectale strain: ATCC33656 for biotransformation. The drug concentrations were measured before and after a 12-h incubation by liquid-chromatography-coupled mass spectrometry (LC–MS); details: agathobacter rectalis, 2 µM
[8] = The drug is tested on Providencia rettgeri strain: DSM1131 for biotransformation. The drug concentrations were measured before and after a 12-h incubation by liquid-chromatography-coupled mass spectrometry (LC–MS); format: ADME; set-up: dose 2 uM, timepoint 0 vs 12 hours; details: 2 µM
[9] = The drug is tested on Providencia stuartii strain: ATCC25827 for biotransformation. The drug concentrations were measured before and after a 12-h incubation by liquid-chromatography-coupled mass spectrometry (LC–MS); details: 2 µM
[10] = bacteroides fragilis, 12 h, 2 µM
Description: The drug is tested on Bacteroides fragilis strain: 3397 (T10) for biotransformation. The drug concentrations were measured before and after a 12-h incubation by liquid-chromatography-coupled mass spectrometry (LC–MS)

[11] = bacteroides thetaiotaomicron, 12 h, 2 µM
Description: The drug is tested on Bacteroides thetaiotaomicron strain: 3731 for biotransformation. The drug concentrations were measured before and after a 12-h incubation by liquid-chromatography-coupled mass spectrometry (LC–MS)

[12] = parabacteroides johnsonii, 12 h, 2 µM
Description: The drug is tested on Parabacteroides johnsonii strain: DSM18315 for biotransformation. The drug concentrations were measured before and after a 12-h incubation by liquid-chromatography-coupled mass spectrometry (LC–MS)

[13] = The drug is tested on Bacteroides coprophilus strain: DSM18228 for biotransformation. The drug concentrations were measured before and after a 12-h incubation by liquid-chromatography-coupled mass spectrometry (LC–MS); details: 2 µM
[14] = The drug is tested on Bacteroides ovatus strain: ATCC8483 for biotransformation. The drug concentrations were measured before and after a 12-h incubation by liquid-chromatography-coupled mass spectrometry (LC–MS); details: 2 µM
[15] = The drug is tested on Odoribacter splanchnicus strain: fecal isolate for biotransformation. The drug concentrations were measured before and after a 12-h incubation by liquid-chromatography-coupled mass spectrometry (LC–MS); details: 2 µM
[16] = The drug is tested on Dorea formicigenerans strain: ATCC27755 for biotransformation. The drug concentrations were measured before and after a 12-h incubation by liquid-chromatography-coupled mass spectrometry (LC–MS); details: 2 µM
[17] = akkermansia muciniphila, 12 h, 2 µM
Description: The drug is tested on Akkermansia muciniphila strain: ATCC BAA-835 for biotransformation. The drug concentrations were measured before and after a 12-h incubation by liquid-chromatography-coupled mass spectrometry (LC–MS)

[18] = bacteroides thetaiotaomicron, 12 h, 2 µM; remark: listed apart in the source
Description: The drug is tested on Bacteroides thetaiotaomicron strain: VPI-5482 for biotransformation. The drug concentrations were measured before and after a 12-h incubation by liquid-chromatography-coupled mass spectrometry (LC–MS)

[19] = The drug is tested on Bacteroides xylanisolvens strain: DSM18836 for biotransformation. The drug concentrations were measured before and after a 12-h incubation by liquid-chromatography-coupled mass spectrometry (LC–MS); details: 2 µM
[20] = The drug is tested on Clostridium sporogenes strain: ATCC15579 for biotransformation. The drug concentrations were measured before and after a 12-h incubation by liquid-chromatography-coupled mass spectrometry (LC–MS); details: 2 µM

Measured: Bacterial Biotransformation

CC(C)OC(=O)C(C)(C)Oc1ccc(C(=O)c2ccc(Cl)cc2)cc1 [FENOFIBRATE]
Compound metabolized: [12]
not listed: [13] | [14] | [15] | [16] | [17] | [18] | [19] | [20]
Compound NOT metabolized: all other assays above

OCCOCCN1CCN(C2=Nc3ccccc3Sc3ccccc32)CC1 [QUETIAPINE]
not listed: [8] | [9] | [11] | [12] | [18] | [19] | [20]
Compound NOT metabolized: all other assays above

CC(=O)OCC(=O)[C@@]1(O)[C@@H](C)C[C@H]2[C@@H]3CCC4=CC(=O)C=C[C@]4(C)[C@@]3(F)[C@@H](O)C[C@@]21C [BETAMETHASONE ACETATE]
Compound metabolized: [13] | [4] | [5] | [15] | [10] | [18] | [12]
not listed: [1] | [9] | [14] | [19] | [20]
Compound NOT metabolized: all other assays above

CCCN(CCC)CCc1cccc2c1CC(=O)N2 [ROPINIROLE]
not listed: [7] | [10] | [11] | [13] | [15] | [18]
Compound NOT metabolized: all other assays above

O=C1C(CC[S+]([O-])c2ccccc2)C(=O)N(c2ccccc2)N1c1ccccc1 (stereo unspecified) [SULFINPYRAZONE]
Compound metabolized: [4] | [5] | [19] | [15]
not listed: [6] | [8] | [20]
Compound NOT metabolized: all other assays above

CC(C)NCC(O)c1ccc(NS(C)(=O)=O)cc1 (stereo unspecified) [SOTALOL]
Compound metabolized: [4] | [5] | [14] | [10] | [18]
not listed: [7] | [13]
Compound NOT metabolized: all other assays above

CS(=O)(=O)O.O.O.O.O=C1Cc2cc(CCN3CCN(c4nsc5ccccc45)CC3)c(Cl)cc2N1 [ZIPRASIDONE MESYLATE]
Compound metabolized: [14]
not listed: [6] | [15] | [20]
Compound NOT metabolized: all other assays above

COc1ccccc1OCC(O)CN1CCN(CC(=O)Nc2c(C)cccc2C)CC1 (stereo unspecified) [RANOLAZINE]
not listed: [17] | [20]
Compound NOT metabolized: all other assays above

CCCc1nn(C)c2c(=O)[nH]c(-c3cc(S(=O)(=O)N4CCN(C)CC4)ccc3OCC)nc12.O=C(O)CC(O)(CC(=O)O)C(=O)O [SILDENAFIL CITRATE]
Compound metabolized: [13] | [14] | [19] | [15]
not listed: [1] | [8] | [20]
Compound NOT metabolized: all other assays above
